According to ChEMBL document CHEMBL3507680, “University of Dundee, Gates Library screen for HepG2 cell viability”:

Assay: Human HepG2 cell viability assay in 384 well format
Assay type: toxicity, cell-based
Set-up: dose 125 nL, time 70.5 hour; cytotoxicity at 70.5 h: concentration not given beside the values
Conditions: HepG2 cells, read-out: Inhibition

Row | SMILES | cytotoxicity at 70.5 h [%]
1 | O=C(NCN1CCc2ccccc2C1)c1cnccn1 | -8.88
2 | CS(=O)(=O)CCCN(CCc1cccc(F)c1)C1CC1 | 21.4
3 | Cc1cccc(C)c1OCCCN1CCC(n2cncn2)CC1 | 3.77
4 | O=C(NC1CCN(c2ccccc2OC(F)F)C1)c1c[nH]nn1 (centres undefined) | -10.2
5 | CC1(C)CN=C(N2CCN(CC3CCCO3)CC2)S1 (centres undefined) | -7.36
6 | CCc1nc(CNC(C)(CO)C2CCCCC2)no1 (centres undefined) | 15.6
7 | COc1ccc(N(Cc2ccco2)C(=O)COC(C)C)cc1F | -7.47
8 | COc1c(CNC(C)C(=O)NC2CCCC2)c(C(C)C)nn1C (centres undefined) | -6.92
9 | Clc1ccc(-c2cnc(CNC3CCc4ncnn4C3)o2)cc1 (centres undefined) | -12.9
10 | CCCN(CC(F)F)c1cc(COC)nc2ncnn12 | -9.58
11 | COCc1cc(N(Cc2ccsc2)C2CC2)n2ncnc2n1 | -6.87
12 | Cc1cc(C(=O)Nc2nnn[nH]2)ccc1I | -5.12
13 | CCC(C)(N)c1nc(=O)c(C)c(C)[nH]1 (centres undefined) | -7.88
14 | CC(NC(=O)N1CCC(CO)CC1)c1csc2ccccc12 (centres undefined) | -1.97
15 | O=C(CN1CCOc2ccc(Cl)cc21)NCCCn1cccn1 | 9.56
16 | CN(Cc1nnc(-c2ccco2)o1)Cc1nc2c(s1)CCCC2 | -11.2
17 | O=C(O)c1csc(S(=O)(=O)N2CCCc3cccc(OC(F)F)c32)c1 | -5.21
18 | OCC(CO)Nc1ccc2ccc(Cl)c(Cl)c2n1 | 19.4
19 | Cc1cccc(S(=O)(=O)NCC(C)(C)CC(C)O)c1C#N (centres undefined) | -6.31
20 | CC(O)CC(C)(C)CNS(=O)(=O)c1cccc(Cl)c1C#N (centres undefined) | -10

Row | SMILES | cytotoxicity at 70.5 h [%]
21 | CCN(C(=O)CNC1CCc2ncnn2C1)C1=CCCCC1 (centres undefined) | 4.5
22 | O=C(NCCCC(=O)N1CCN(CC2CC2)c2ccccc21)C1CC1 | -7.6
23 | Cc1cc(C)n(-c2ccc(C(=O)N3CCCC3c3cnn(C)c3)cc2)n1 (centres undefined) | -5.54
24 | C[S+]([O-])c1nncn1CCCc1ccc(Cl)cc1 (centres undefined) | -2.94
25 | CCCC(=O)N1CCCCC1C(=O)Nc1ccc(-c2nnc[nH]2)cc1 (centres undefined) | -5.35
26 | CCC(C)C(=O)NCCc1nc(C(F)(F)F)cs1 (centres undefined) | -6.38
27 | CC(NC(=O)NCCc1nc(C(F)(F)F)cs1)C(=O)N(C)C (centres undefined) | -7.19
28 | CC(C)C(O)CNC(=O)Nc1cnn(Cc2ccccc2)c1 (centres undefined) | -1.15
29 | CC(C)CN1C(=O)C2(CCCC2)NC1c1cn(C)c(=O)n(C)c1=O (centres undefined) | 0.777
30 | Cc1cccc(Sc2nccn(C)c2=O)c1 | -13.8
31 | Cc1ccc(Sc2nccn(C)c2=O)cc1 | -3.35
32 | Cn1ccnc(Sc2ccccc2)c1=O | -9.9
33 | CC(=O)c1ccc(CNC(=O)c2c(C)cc(C)cc2C)nc1C | 3.34
34 | CC(C)N(C)CC(=O)N(C)Cc1nc(C(F)(F)F)cs1 | 2.33
35 | CSC1(CNC(=O)CCc2ccc(Cl)s2)CCOCC1 | -5.64
36 | Cn1cc(C2NC3(CCCC3)C(=O)N2CC2CC2)c(=O)n(C)c1=O (centres undefined) | -5.99
37 | Cc1nc(C)c(CNC(=O)N2CCc3ccccc3C2CO)s1 (centres undefined) | -1.94
38 | CCC(=O)N1CCC(NC(=O)c2cccc(-n3ccnc3)c2)C1 (centres undefined) | -8.46
39 | Cc1cc(CNC(=O)N2CCc3ccccc3C2CO)c(C)o1 (centres undefined) | -5.72
40 | CC(=O)c1ccc(CNC(=O)c2cc(C)nn2C)nc1C | 3.42

Row | SMILES | cytotoxicity at 70.5 h [%]
41 | Cc1nc(C(=O)N2CCN(C(C)c3ccccc3F)CC2)cs1 (centres undefined) | -1.44
42 | Cc1ccc(CC(=O)N2CCN(C(C)c3ccccc3F)CC2)cn1 (centres undefined) | -2.9
43 | O=C(CCc1ccsc1)Nc1cnccc1O | -6.71
44 | CC(NC(=O)Cn1cccnc1=O)c1ccc(C(F)(F)F)cc1 (centres undefined) | 12
45 | NC(=O)CCCNC(=O)COc1ccccc1C(F)(F)F | -5.37
46 | CCC(C#N)NC(=O)c1ccc(Oc2cccnc2)cc1 (centres undefined) | -8.45
47 | CC1CCCCN1CCNC(=O)NCc1ccc(C#N)cc1F (centres undefined) | -6.05
48 | CC1CCN(c2nc3c(cnn3-c3ccccc3)c(=O)[nH]2)CC1 | -5.83
49 | N#Cc1ccc(CNC(=O)NCCNC(=O)C2CCCC2)c(F)c1 | 13.4
50 | Cc1nc(C2CCCN(C(=O)CN3CCCNC3=O)C2)sc1C (centres undefined) | -8.3
51 | CNc1nc(CNC(=O)Nc2ccc(OC(C)C)cc2C)cs1 | -2.53
52 | O=C(O)c1ccc(CCNC(=O)C2(c3ccccc3)CC2)cc1 | 12.5
53 | N#CCSCCCN1CCN(C(=O)C2CCCC2)CC1 | -5.88
54 | Cc1[nH]c2ccccc2c1CCNC(=O)N1CCC2(C1)OCCO2 | -17.8
55 | CCc1nc(C2CCCN2C(=O)CCCOc2cccc(F)c2)no1 (centres undefined) | -18.6
56 | CC(c1ccccc1F)N1CCN(C(=O)Cc2ccncc2)CC1 (centres undefined) | -11.8
57 | Cc1nc(C2CCCN2C(=O)CCCOc2ccccc2C)no1 (centres undefined) | -8.51
58 | CCC(C)(NCC(=O)N(c1ccccc1)C(C)C)c1nc(C)cs1 (centres undefined) | 2.38
59 | CC(=O)N(Cc1ncc(C)o1)C1CCN(CCNC2CCCCC2)C1 (centres undefined) | 9.67
